# From patent publication US9527859B2, “Amidopyridine derivative and use thereof” (Mitsubishi Tanabe Pharma Corporation, priority 2012, dated 2016)
# Assay: Single dose toxicity study in dogs
# Format: in vivo, dog
# Details: beagle dogs, single oral dose 10, 30, 100 mg/kg
# Experimental: Single Dose Toxicity Study in Dogs
# The study was carried out with TOYO beagles (KITAYAMA LABES CO., LTD., Hongou farm), four dogs per each sex. They were 5-month old on arrival at testing facility, and were 10-month old when started to be administered. Basal diet was 300 g/day, DS-A (Oriental Yeast Co., Ltd.), and drinking water was tap water. Allocation to the groups was carried out so that an animal number was allocated in order of quarantine number for males and females respectively whose clinical signs and results of clinical laboratory test were considered to be normal.
# As to a dosing suspension, 0.5 w/v % HPMC aqueous solution was used as a vehicle, the required amounts of test compound were pre-weighed for each dose group, and it was prepared in a specified concentration with mortar and pestleon the day of administration. Dose volume was 5 mL/kg (calculated on the basis of body weight measured on the day of administration). […]
# A clinical sign was observed before administration and during TK blood sampling on the day of administration, and once in the morning every day on the day other than administration. Body weight was measured in the pre-dosing term (−5th day, −1st day), on the day of administration and on the next day after administration.
# Feeding was carried out every day, and food consumption (g/day) was calculated from the remaining food in the next morning after feeding. […]
structure (smiles),measurement,value
"Cc1c(C(=O)Nc2cnc(N3CCC(O)CC3)c(C3CC3)c2)cnn1-c1ccc(Cl)cc1 [Example 39, 1-(4-chlorophenyl)-N-[5-cyclopropyl-6-(4-hydroxypiperidin-1-yl)pyridin-3-yl]-5-methyl-1H-pyrazole-4-carboxamide]","Changes caused by administration (clinical signs, body weight, food consumption, hematology, blood chemistry incl. ALT, AST, TBil)",no changes caused by administration were found in any doses
